≈ marks a conversion by molar mass, not a printed value. Calls of active or inactive are those of the source. No cut-off for these calls is given here.
What was measured:
[1] = tested on: Mycobacterium tuberculosis; assay: Antibacterial activity against Mycobacterium tuberculosis H37Rv assessed as inhibition of bacterial growth incubated for 7 days by alamar blue assay; assay type: functional; conditions: 168 h, time 7 day
[2] = tested on: Enterococcus faecalis; assay: Antibacterial activity against Enterococcus faecalis ATCC29212 assessed as inhibition of bacterial growth incubated for 18 hrs by microdilution broth assay; assay type: functional
[3] = tested on: Staphylococcus aureus; assay: Antibacterial activity against methicillin resistant Staphylococcus aureus clinical isolate 20-2 assessed as inhibition of bacterial growth incubated for 7 days by alamar blue assay; assay type: functional; conditions: clinical isolate 20-2, 168 h, time 7 day
[4] = tested on: Staphylococcus aureus; assay: Antibacterial activity against Linezolid resistant Staphylococcus aureus clinical isolate 20-2 assessed as inhibition of bacterial growth incubated for 7 days by alamar blue assay; assay type: functional; conditions: clinical isolate 20-2, 168 h, time 7 day
[5] = tested on: Enterococcus faecalis; assay: Antibacterial activity against Linezolid resistant Enterococcus faecalis clinical isolate 20-1 assessed as inhibition of bacterial growth incubated for 7 days by alamar blue assay; assay type: functional; conditions: clinical isolate 20-1, 168 h, time 7 day
[6] = Metabolic stability in human liver microsomes assessed as substrate remaining at 10 uM incubated for 60 mins in presence of NADPH by LC-MS/MS analysis; assay type: ADME, Microsome; conditions: read-out: Stability
[7] = AUC (0 to t) in BALB/c mouse at 10 mg/kg,po administration measured upto 24 hrs by LC-MS/MS analysis; assay type: ADME, organism-based; conditions: in vivo
[8] = AUC (0 to infinity) in BALB/c mouse at 10 mg/kg,po administration measured upto 24 hrs by LC-MS/MS analysis; assay type: ADME, organism-based; conditions: BALB/c, in vivo
[9] = MRT (0 to infinity) in BALB/c mouse at 10 mg/kg,po administration measured upto 24 hrs by LC-MS/MS analysis; assay type: ADME, organism-based; conditions: in vivo
[10] = tested on: Staphylococcus aureus; assay: (§1) Antibacterial activity against methicillin resistant Staphylococcus aureus ATCC 33592 infected in cyclophosphamide-induced immunosuppressed Kunming mouse assessed as reduction in bacterial load in kidney at 25 to 50 mg/kg,po administration measured after 24 hrs by hematoxylin and eosin staining based microscopy; assay type: functional, organism-based; conditions: dose 25-50 mg/kg
[11] = tested on: Staphylococcus aureus; assay: Antibacterial activity against methicillin resistant Staphylococcus aureus ATCC 33592 infected in cyclophosphamide-induced immunosuppressed Kunming mouse assessed as increase in lymphocytes at 25 to 50 mg/kg,po administration measured after 7 days by Giemsa staining based analysis; assay type: functional, organism-based; conditions: dose 25-50 mg/kg, time 7.0 day
[12] = tested on: Staphylococcus aureus; assay: Antibacterial activity against methicillin resistant Staphylococcus aureus ATCC 33592 infected in cyclophosphamide-induced immunosuppressed Kunming mouse assessed as decrease in IL-1beta level at po administration measured after 24 hrs by ELISA; assay type: functional, organism-based
[13] = tested on: Staphylococcus aureus; assay: as §1, with “histopathological change” for “bacterial load”, “spleen” for “kidney”, “at” for “at 25 to”; assay type: functional, organism-based
[14] = tested on: Staphylococcus aureus; assay: as §1, with “congestion” for “bacterial load”, “spleen” for “kidney”, “at” for “at 25 to”; assay type: functional, organism-based
[15] = tested on: Staphylococcus aureus; assay: as §1, with “inflammatory cell infiltration” for “bacterial load”, “lung” for “kidney”, “10” for “25”; assay type: functional, organism-based; conditions: dose 10-50 mg/kg
[16] = tested on: Cell membrane; assay: Disruption of cell membrane in methicillin resistant Staphylococcus aureus ATCC 33592 assessed as change in morphology at 0.5 ug/ml incubated for 30 mins by Scanning electron microscopic analysis; assay type: cell membranes; conditions: dose 0.5 µg/ml

CC(=O)NC[C@@H]1OC(=O)N2Cc3cc(-c4ccc(C#N)cc4)c(F)cc3O[C@@H]12
MIC [1]: 0.52 µg/mL (≈ 1.36 µM) | MIC [2]: 1 µg/mL (≈ 2.62 µM) | MIC [3]: 0.5 µg/mL (≈ 1.31 µM) | MIC [4]: 8 µg/mL (≈ 21 µM) | MIC [5]: 1 µg/mL (≈ 2.62 µM) | remaining at 1 h, 10 µM [6]: 116% | AUC(0-t) at 24 h [7]: 62500 ng·h/mL | AUC(0-inf) [8]: 83500 ng·h/mL | MRT inf [9]: 17.3 h | Activity [10]: Active | Activity [11]: Active | Activity [12]: Dose-Dependent Effect | Activity [13]: Active | Activity [14]: Active | Activity [15]: Active | Activity [16]: Active

Reference: ChEMBL document CHEMBL5608235, “Tricyclic Benzo[1,3]oxazinyloxazolidinones as Potent Antibacterial Agents against Drug-Resistant Pathogens” (J Med Chem, 2024)
